This passage reports Ki and EC50 results from patent publication US9346815B2, “5-chloro-2-difluoromethoxyphenyl pyrazolopyrimidine compounds, compositions and methods of use thereof” (Genentech, Inc., priority 2014, dated 2016).

For assay [1], the target named is isolated recombinant JAK1 kinase domain (Homo sapiens (Human), UniProt P23458). The assay is described as follows: JAK1 enzyme assay (Caliper LabChip, peptide phosphorylation). The format is biochemical. The note with it: isolated recombinant JAK1 kinase domain, 25 μM ATP.
For assay [2], the system named is JAK1-dependent STAT6 phosphorylation downstream of IL-13 stimulation in BEAS-2B human bronchial epithelial cells. The assay is described as follows: JAK1 pathway assay in BEAS-2B cells (IL-13-pSTAT6, MSD). Particulars: read-out: IL13-pSTAT6 EC50 (uM)_BEAS-2B. The format is cell-based. The protocol:
JAK1 Pathway Assay in Cell Lines was Carried Out as Follows:
Inhibitor potency (EC50) was determined in cell-based assays designed to measure JAK1 dependent STAT phosphorylation.
In one assay approach, TF-1 human erythroleukemia cells obtained from the American Type Culture Collection (ATCC; Manassas, Va.) were used to measure JAK1-dependent STAT6 phosphorylation downstream of IL-13 stimulation. Prior to use in the assays, TF-1 cells were starved of GM-CSF overnight in OptiMEM medium (Life Technologies, Grand Island, N.Y.) supplemented with 0.5% charcoal/dextran stripped fetal bovine serum (FBS), 0.1 mM non-essential amino acids (NEAA), and 1 mM sodium pyruvate. The assays were run in 384-well plates in serum-free OptiMEM medium using 300,000 cells per well. In a second assay approach, BEAS-2B human bronchial epithelial cells obtained from ATCC were plated at 100,000 cells per well of a 96-well plate one day prior to the experiment. The BEAS-2B assay was run in complete growth medium (bronchial epithelial basal medium plus bulletkit; Lonza; Basel, Switzerland).
Test compounds were serially diluted 1:2 in DMSO and then diluted 1:50 in medium just before use. Diluted compounds were added to the cells, for a final DMSO concentration of 0.2%, and incubated for 30 min (for the TF-1 assay) or 1 hr (for the BEAS-2B assay) at 37° C. Then, cells were stimulated with human recombinant cytokine at their respective EC90 concentrations, as previously determined for each individual lot. Cells were stimulated with IL-13 (R&D Systems, Minneapolis, Minn.) for 15 min at 37° C. The TF-1 cell reactions were stopped by the direct addition of 10× lysis buffer (Cell Signaling Technologies, Danvers, Mass.), whereas the BEAS-2B cell incubations were halted by the removal of medium and addition of 1× lysis buffer. The resultant samples were frozen in the plates at −80° C. Compound mediated inhibition of STAT6 phosphorylation was measured in the cell lysates using MesoScale Discovery (MSD) technology (Gaithersburg, Md.).

Assay [3] addresses isolated recombinant JAK2 kinase domain (Homo sapiens (Human), UniProt O60674). The assay is described as follows: JAK2 enzyme assay (Caliper LabChip, peptide phosphorylation). The assay is classed as biochemical. The note with it: 25 μM ATP.

isolated recombinant JAK1 kinase domain, sequence (P23458 875-1153): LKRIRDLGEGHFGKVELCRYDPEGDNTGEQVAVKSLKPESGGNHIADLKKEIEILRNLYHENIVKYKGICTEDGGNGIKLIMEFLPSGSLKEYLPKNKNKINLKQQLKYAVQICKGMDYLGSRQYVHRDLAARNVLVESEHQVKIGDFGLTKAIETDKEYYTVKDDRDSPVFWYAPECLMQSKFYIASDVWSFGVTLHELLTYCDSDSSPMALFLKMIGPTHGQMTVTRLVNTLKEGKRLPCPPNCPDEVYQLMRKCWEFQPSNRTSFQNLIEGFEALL
isolated recombinant JAK2 kinase domain, sequence (O60674 849-1124): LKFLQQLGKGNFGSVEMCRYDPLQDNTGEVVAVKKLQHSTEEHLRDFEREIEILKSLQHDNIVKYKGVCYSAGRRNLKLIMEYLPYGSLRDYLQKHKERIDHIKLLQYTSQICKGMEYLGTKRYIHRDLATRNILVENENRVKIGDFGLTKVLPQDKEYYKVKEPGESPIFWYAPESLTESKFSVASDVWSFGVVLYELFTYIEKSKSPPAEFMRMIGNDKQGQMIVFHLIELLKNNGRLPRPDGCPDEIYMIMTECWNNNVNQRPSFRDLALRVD

For orientation: Ki means the dissociation constant of the complex between target and ligand, obtained from inhibition or displacement. What is called EC50 is the concentration needed to bring the measured effect to its halfway point. With `CN1CCN(C2CCN(C(=O)Cn3cc(NC(=O)c4cnn5cccnc45)c(-c4cc(Cl)ccc4OC(F)F)n3)CC2)CC1=O` [Example 416, N-(3-(5-chloro-2-(difluoromethoxy)phenyl)-1-(2-(4-(4-methyl-3-oxopiperazin-1-yl)piperidin-1-yl)-2-oxoethyl)-1H-pyrazol-4-yl)pyrazolo[1,5-a]pyrimidine-3-carboxamide], the Ki in assay [1] was found to be 0.00041 µM. For the same compound, the EC50 in assay [2] was 0.0316 µM. Take `O=C(Nc1cn(CC(=O)N2CCC(N3CC[S+]([O-])CC3)CC2)nc1-c1cc(Cl)ccc1OC(F)F)c1cnn2cccnc12` [Example 443]: the EC50 in assay [2] is 0.0663 µM. On to `O=C(CN1CCCCC1)Cn1cc(NC(=O)c2cnn3cccnc23)c(-c2cc(Cl)ccc2OC(F)F)n1` [Example 418, N-(3-(5-chloro-2-(difluoromethoxy)phenyl)-1-(2-oxo-3-(piperidin-1-yl)propyl)-1H-pyrazol-4-yl)pyrazolo[1,5-a]pyrimidine-3-carboxamide], for which the Ki in assay [3] amounted to 0.0008 µM. In assay [2], the EC50 is 0.0609 µM. Turning to `CCN[C@@H](C)Cn1cc(NC(=O)c2cnn3cccnc23)c(-c2cc(Cl)ccc2OC(F)F)n1` [Example 371, N-[3-[5-chloro-2-(difluoromethoxy)phenyl]-1-[(2S)-2-(ethylamino)propyl]-1H-pyrazol-4-yl]pyrazolo[1,5-a]pyrimidine-3-carboxamide], the half-maximal effective concentration (EC50) in assay [2] turned out to be 0.0146 µM. As to `CN(CC1(C)OCCO1)C1CCN(C(=O)Cn2cc(NC(=O)c3cnn4cccnc34)c(-c3cc(Cl)ccc3OC(F)F)n2)CC1` [Example 438, N-(3-(5-chloro-2-(difluoromethoxy)phenyl)-1-(2-(4-(methyl((2-methyl-1,3-dioxolan-2-yl)methyl)amino)piperidin-1-yl)-2-oxoethyl)-1H-pyrazol-4-yl)pyrazolo[1,5-a]pyrimidine-3-carboxamide], the inhibitory constant (Ki) in assay [1] stood at 0.00059 µM. Moreover, the concentration for a half-maximal effect (EC50) in assay [2] came out at 0.015 µM.

On to `O=C(Nc1cn(Cc2cn(C3CCN(C4CCOCC4)CC3)nn2)nc1-c1cc(Cl)ccc1OC(F)F)c1cnn2cccnc12` [Example 457, N-(3-(5-chloro-2-(difluoromethoxy)phenyl)-1-((1-(1-(tetrahydro-2H-pyran-4-yl)piperidin-4-yl)-1H-1,2,3-triazol-4-yl)methyl)-1H-pyrazol-4-yl)pyrazolo[1,5-a]pyrimidine-3-carboxamide], for which the Ki in assay [1] was found to be 0.00045 µM. The concentration for a half-maximal effect (EC50) in assay [2] stood at 0.0156 µM.

Regarding `CN(C1CCN(C(=O)Cn2cc(NC(=O)c3cnn4cccnc34)c(-c3cc(Cl)ccc3OC(F)F)n2)CC1)C1COC1` [Example 459, N-(3-(5-chloro-2-(difluoromethoxy)phenyl)-1-(2-(4-(methyl(oxetan-3-yl)amino)piperidin-1-yl)-2-oxoethyl)-1H-pyrazol-4-yl)pyrazolo[1,5-a]pyrimidine-3-carboxamide], in assay [1], the inhibitory constant (Ki) was found to be 0.0003 µM. The concentration for a half-maximal effect (EC50) in assay [2] worked out at 0.0075 µM. On the same counts, the results for `COC(=O)CCN1CCN(C(=O)Cn2cc(NC(=O)c3cnn4cccnc34)c(-c3cc(Cl)ccc3OC(F)F)n2)CC1` [Example 331, methyl 3-[4-(2-[3-[5-chloro-2-(difluoromethoxy)phenyl]-4-[pyrazolo[1,5-a]pyrimidine-3-amido]-1H-pyrazol-1-yl]acetyl)piperazin-1-yl]propanoate] are 0.00039 µM and 0.0176 µM. For `CN(C1CCN(C(=O)Cn2cc(NC(=O)c3cnn4cccnc34)c(-c3cc(Cl)ccc3OC(F)F)n2)CC1)[C@@H]1CCOC1` [Example 432, N-(3-(5-chloro-2-(difluoromethoxy)phenyl)-1-(2-(4-(methyl((R)-tetrahydrofuran-3-yl)amino)piperidin-1-yl)-2-oxoethyl)-1H-pyrazol-4-yl)pyrazolo[1,5-a]pyrimidine-3-carboxamide], in that order: 0.0004 µM and 0.0326 µM. Regarding `O=C(O)CCN1CCN(C(=O)Cn2cc(NC(=O)c3cnn4cccnc34)c(-c3cc(Cl)ccc3OC(F)F)n2)CC1` [Example 353, 3-[4-(2-[3-[5-chloro-2-(difluoromethoxy)phenyl]-4-[pyrazolo[1,5-a]pyrimidine-3-amido]-1H-pyrazol-1-yl]acetyl)piperazin-1-yl]propanoic acid], the Ki in assay [1] was 0.00032 µM. Further, in assay [2], the half-maximal effective concentration (EC50) stood at 3.61 µM. On the same counts, the results for `CN1CCN(C/C=C/Cn2cc(NC(=O)c3cnn4cccnc34)c(-c3cc(Cl)ccc3OC(F)F)n2)CC1` [Example 395, N-[3-[5-chloro-2-(difluoromethoxy)phenyl]-1-[(2E)-4-(4-methylpiperazin-1-yl)but-2-en-1-yl]-1H-pyrazol-4-yl]pyrazolo[1,5-a]pyrimidine-3-carboxamide] are 0.00129 µM and 0.0224 µM. For `O=C(CN1CCOCC1)Cn1cc(NC(=O)c2cnn3cccnc23)c(-c2cc(Cl)ccc2OC(F)F)n1` [Example 412, N-(3-(5-chloro-2-(difluoromethoxy)phenyl)-1-(3-morpholino-2-oxopropyl)-1H-pyrazol-4-yl)pyrazolo[1,5-a]pyrimidine-3-carboxamide], in that order: 0.0017 µM and 0.0395 µM. As to `CSCCOC(=O)CNCCn1cc(NC(=O)c2cnn3cccnc23)c(-c2cc(Cl)ccc2OC(F)F)n1` [Example 396, 2-(methylthio)ethyl 2-(2-(3-(5-chloro-2-(difluoromethoxy)phenyl)-4-(pyrazolo[1,5-a]pyrimidine-3-carboxamido)-1H-pyrazol-1-yl)ethylamino)acetate], the inhibition constant Ki in assay [1] was 0.00329 µM. In assay [2], the 50% effective concentration (EC50) worked out at 0.0382 µM. For `CN(C1CCN(C(=O)Cn2cc(NC(=O)c3cnn4cccnc34)c(-c3cc(Cl)ccc3OC(F)F)n2)CC1)[C@H]1CCOC1` [Example 442, N-(3-(5-chloro-2-(difluoromethoxy)phenyl)-1-(2-(4-(methyl((S)-tetrahydrofuran-3-yl)amino)piperidin-1-yl)-2-oxoethyl)-1H-pyrazol-4-yl)pyrazolo[1,5-a]pyrimidine-3-carboxamide], in that order: 0.00033 µM and 0.0194 µM. With `CCOC(=O)CCN1CCN(C(=O)Cn2cc(NC(=O)c3cnn4cccnc34)c(-c3cc(Cl)ccc3OC(F)F)n2)CC1` [Example 332], in assay [2], the half-maximal effective concentration (EC50) was 0.0692 µM. The same measure, in the same setting: next, `CN(CC1(C#N)CC1)C1CCN(C(=O)Cn2cc(NC(=O)c3cnn4cccnc34)c(-c3cc(Cl)ccc3OC(F)F)n2)CC1` [Example 467, N-(3-(5-chloro-2-(difluoromethoxy)phenyl)-1-(2-(4-(((1-cyanocyclopropyl)methyl) (methyl)amino)piperidin-1-yl)-2-oxoethyl)-1H-pyrazol-4-yl)pyrazolo[1,5-a]pyrimidine-3-carboxamide]: 0.0075 µM; `CNC(=O)[C@@H]1CCCN1CC1CCN(C(=O)Cn2cc(NC(=O)c3cnn4cccnc34)c(-c3cc(Cl)ccc3OC(F)F)n2)CC1` [Example 425, N-(3-(5-chloro-2-(difluoromethoxy)phenyl)-1-(2-(4-(((S)-2-(methyl-carbamoyl)pyrrolidin-1-yl)methyl)piperidin-1-yl)-2-oxoethyl)-1H-pyrazol-4-yl)pyrazolo[1,5-a]pyrimidine-3-carboxamide]: 0.0411 µM. Same read-out and setting: under `O=C(Nc1cn([C@H]2CNCC[C@@H]2O)nc1-c1cc(Cl)ccc1OC(F)F)c1cnn2cccnc12` [Example 361, N-[3-[5-chloro-2-(difluoromethoxy)phenyl]-1-[(3S,4S)-4-hydroxypiperidin-3-yl]-1H-pyrazol-4-yl]pyrazolo[1,5-a]pyrimidine-3-carboxamide] stands 0.0273 µM. As for `O=C(Nc1cn(CC(O)CN2CCOCC2)nc1-c1cc(Cl)ccc1OC(F)F)c1cnn2cccnc12` (centres unmarked) [Example 403, N-(3-(5-chloro-2-(difluoromethoxy)phenyl)-1-(2-hydroxy-3-morpholinopropyl)-1H-pyrazol-4-yl)pyrazolo[1,5-a]pyrimidine-3-carboxamide], the Ki in assay [1] worked out at 0.00146 µM. Moreover, the half-maximal effective concentration (EC50) in assay [2] turned out to be 0.0283 µM.

For the compound `CN(C)C(=O)CNC1CCN(C(=O)Cn2cc(NC(=O)c3cnn4cccnc34)c(-c3cc(Cl)ccc3OC(F)F)n2)CC1` [Example 401, N-(3-(5-chloro-2-(difluoromethoxy)phenyl)-1-(2-(4-(2-(dimethylamino)-2-oxoethylamino)piperidin-1-yl)-2-oxoethyl)-1H-pyrazol-4-yl)pyrazolo[1,5-a]pyrimidine-3-carboxamide], in assay [1], the Ki turned out to be 0.00075 µM. In addition, in assay [2], the half-maximal effective concentration (EC50) came out at 0.152 µM.

Regarding `O=C(Nc1cn([C@@H]2CNCC[C@H]2O)nc1-c1cc(Cl)ccc1OC(F)F)c1cnn2cccnc12` [Example 360, N-[3-[5-chloro-2-(difluoromethoxy)phenyl]-1-[(3R,4R)-4-hydroxypiperidin-3-yl]-1H-pyrazol-4-yl]pyrazolo[1,5-a]pyrimidine-3-carboxamide], the concentration for a half-maximal effect (EC50) in assay [2] came out at 0.0366 µM.
